For ten compounds, λ chain secretion, IC50 and IgG secretion results are on record in patent publication US20260200903A1, “PHARMACEUTICAL COMPOSITION FOR AMELIORATING MALIGNANT DISEASES” (KINKI UNIVERSITY, priority 2020, published 2026).

The test system of assay [1] is immunoglobulin free λ light chain. Kind of assay: Immunoglobulin free λ light chain secretion in KMS-28BM cells, ELISA. The note with it: KMS-28BM culture supernatant after 10 days, control 48 μg/L. The assay is classed as cell-based, human. How it is done: The inhibitory effect of each compound on immunoglobulin free λ light chain secretion was examined by enzyme-linked immunosorbent assay (ELISA) using KMS-28BM cells.
(§1) As a control, compounds untreated KMS-28BM cells were seeded in 75 cm^2 flasks and incubated for 10 days at 37° C. and 5% CO2. KMS-28BM cells were seeded into 75 cm^2 flasks and pre-cultured for 4 h. After incubation, KMS-28BM cells were treated with […], 0.05 μM M9, 0.1 μM yk-7, 0.1 μM yk-8-3, 50 μM yk-8-1, 0.5 μM M11, […], 0.005 μM M14, 0.005 μM M15, 0.005 μM M16, 0.5 μM M18, and 0.5 μM M19 at final concentrations, and incubated for 10 days at 37° C. and 5% CO2. After 10 days of incubation, the culture supernatant was collected and immunoglobulin free λ light chain secretion was measured by ELISA. This measurement was performed using a human anti-λchain antibody ELISA kit (Funakoshi).
On the technique in general: In an ELISA, binding on a coated surface is turned into a signal by an enzyme label.

Assay [2] shares this test system. The experiment in a line: Immunoglobulin free λ light chain secretion in L363 cells, ELISA. The class given is cell-based, human. The note with it: L363 culture supernatant after 10 days, control 145 μg/L. How it is done: The inhibitory effect of each compound on immunoglobulin free λ light chain secretion was examined by enzyme-linked immunosorbent assay (ELISA) using L363 cells.
(§2) As a control, compounds untreated L363 cells were seeded in 75 cm^2 flasks and incubated for 10 days at 37° C. and 5% CO2. L363 cells were seeded into 75 cm^2 flasks and pre-cultured for 4 h. After incubation, L363 cells were treated with 0.1 μM M7, 0.05 μM M9, 0.1 μM yk-7, 0.1 μM yk-8-3, 50 μM yk-8-1, 0.1 μM M11, 0.01 μM M12, 0.005 μM M14, 0.005 μM M15, 0.005 μM M16, 1 μM M18, and 1 μM M19 at final concentrations, and incubated for 10 days at 37° C. and 5% CO2. After 10 days of incubation, the culture supernatant was collected and immunoglobulin free λ light chain secretion was measured by ELISA. This measurement was performed using a human anti-λ chain antibody ELISA kit (Funakoshi).

Assay [3] relates to HUT-78 cells (peripheral T lymphoma cell line). Kind of assay: Cell death inducing effect on HUT-78 cells, trypan blue staining. The assay is classed as cell-based. The note with it: HUT-78 (peripheral T-cell lymphoma), cell viability. How it is done:
HUT-78 cells (peripheral T lymphoma cell line) were cultured under 5% CO2 at 37° C.
The culture medium used RPMI-1640 medium with 100 μg/mL penicillin, 100 U/mL streptomycin and fetal bovine serum. HUT-78 cells were seeded into 96-well plates and incubated with each concentration of the compounds was added, and cell viability was determined by the trypan blue staining.
(§3) For controls, only 0.5% DMSO (diluted in PBS) used to dissolve the compounds was added. For each concentration, the codes “5, 6, 7, 8, 9, 10, 11, 12” and arrows are shown from left to right. The sign “5” is the M9 (formula (5)) administration group, the sign “6” is the M11 (formula (6)) administration group, the sign “7” is the M12 (formula (7)) administration group, the sign “8” is the M14 (formula (8)) administration group, the sign “9” is the M15 (formula (9)) administration group, the sign “10” is the M16 (formula (10)) administration group, the sign “11” is the M18 (formula (11)) administration group, the sign “12” is the M19 (formula (12)) administration group, respectively. The IC50 values for each compound is also listed in the upper right corner of the figure.

The subject of assay [4] is MEC-1 cells (chronic lymphocytic leukemia cell line). The experiment in a line: Cell death inducing effect on MEC-1 cells, trypan blue staining. The class given is cell-based. The note with it: MEC-1 (CLL), cell viability. How it is done:
MEC-1 cells (chronic lymphocytic leukemia cell line) were cultured under 5% CO2 at 37° C. The culture medium used RPMI-1640 medium with 100 μg/mL penicillin, 100 U/mL streptomycin and fetal bovine serum. MEC-1 cells were seeded into 96-well plates and incubated with each concentration of the compounds was added, and cell viability was determined by the trypan blue staining.
as §3

The test system of assay [5] is ATN-1 cells (adult T cell leukemia cell line). Kind of assay: Cell death inducing effect on ATN-1 cells, trypan blue staining. The note with it: ATN-1 (ATL), cell viability. The assay is classed as cell-based. On the procedure: ATN-1 cells (adult T cell leukemia cell line) were cultured under 5% CO2 at 37° C. The culture medium used RPMI-1640 medium with 100 μg/mL penicillin, 100 U/mL streptomycin and fetal bovine serum. ATN-1 cells were seeded into 96-well plates and incubated with each concentration of the compounds was added, and cell viability was determined by the trypan blue staining.
as §3

The subject of assay [6] is IgG. Kind of assay: IgG secretion in KMS-28BM cells, ELISA. The class given is cell-based, human. Particulars: KMS-28BM culture supernatant after 10 days; compounds at 0.005-50 μM; control 1326 ng/mL. On the procedure: The inhibitory effect of each compound on IgG secretion was examined by enzyme-linked immunosorbent assay (ELISA) using KMS-28BM cells.
as §1, with “IgG” for “immunoglobulin free λ light chain”, “anti-IgG” for “anti-λchain”

Assay [7] relates to IgG. Kind of assay: IgG secretion in L363 cells, ELISA. The class given is cell-based, human. Particulars: L363 culture supernatant after 10 days; compounds at 0.005-50 μM; control 2098 ng/mL. How it is done:
The inhibitory effect of each compound on IgG secretion was examined by enzyme-linked immunosorbent assay (ELISA) using L363 cells.
as §2, with “IgG” for “immunoglobulin free λ light chain”, “anti-IgG” for “anti-λ chain”

For `CCC(=O)OC[C@H]1O[C@@H](c2c(OC(=O)CC)cc3oc4cc(OC(=O)CC)c(OC(=O)CC)cc4c(=O)c3c2OC(=O)CC)[C@H](OC(=O)CC)[C@@H](OC(=O)CC)[C@@H]1OC(=O)CC` [Compound M7, 1,3,2′,3′,4′,6,6′,7-octa-O-propionylmangiferin], the λ chain secretion came to 2.1e+06 µg/L in assay [1] (M7 group, unit printed g/L) and 2.3e+07 µg/L in assay [2] (M7 group, unit printed g/L).
By IC50 is commonly meant the concentration that inhibits the measured activity by half. A low value points to inhibition by little substance. On to `CCC(=O)OC[C@H]1O[C@@H](c2c(O)cc3oc4cc(O)c(O)cc4c(=O)c3c2O)[C@H](OC(=O)CC)[C@@H](OC(=O)CC)[C@@H]1OC(=O)CC` [Compound M9, 2′,3′,4′,6′-tetra-O-propionylmangiferin], for which the IC50 in assay [3] (Homo sapiens, HuT78) was 925 nM; in assay [4] (Homo sapiens, MEC1), 454 nM; in assay [5] (Homo sapiens), 589 nM.
Regarding `CCCC(=O)OC[C@H]1O[C@@H](c2c(OC(=O)CCC)cc3oc4cc(OC(=O)CCC)c(OC(=O)CCC)cc4c(=O)c3c2OC(=O)CCC)[C@H](OC(=O)CCC)[C@@H](OC(=O)CCC)[C@@H]1OC(=O)CCC` [Compound M11, 1,3,2′,3′,4′,6,6′,7-octa-O-butyrylmangiferin], the IgG secretion in assay [6] was 61 ng/mL; in assay [7], 44 ng/mL. The λ chain secretion was determined as 1.1 µg/L in assay [1] (compounds at 0.005-50 μM) and 11 µg/L in assay [2] (compounds at 0.005-50 μM). In addition, the IC50 in assay [3] was determined as 905 nM; in assay [4] it was 575 nM; in assay [5], 1850 nM.
Consider `CCCC(=O)OC[C@H]1O[C@@H](c2c(O)cc3oc4cc(O)c(O)cc4c(=O)c3c2OC(=O)CCC)[C@H](OC(=O)CCC)[C@@H](OC(=O)CCC)[C@@H]1OC(=O)CCC` [Compound M12, 1,2′,3′,4′,6-penta-O-butyrylmangiferin], for which the IC50 in assay [3] (Homo sapiens, HuT78) came to 21 nM; in assay [4] (Homo sapiens, MEC1), 12 nM; in assay [5] (Homo sapiens), 15 nM.
Taken in the same sequence, the figures for `CCCC(=O)OC[C@H]1O[C@@H](c2c(O)cc3oc4cc(O)c(O)cc4c(=O)c3c2O)[C@H](OC(=O)CCC)[C@@H](OC(=O)CCC)[C@@H]1OC(=O)CCC` [Compound M14, 2′,3′,4′,6′-tetra-O-butyrylmangiferin] were 8 nM, 8 nM and 8 nM.
The matching figures for `CC(C)(C)C(=O)OC[C@H]1O[C@@H](c2c(O)cc3oc4cc(O)c(O)cc4c(=O)c3c2O)[C@H](OC(=O)C(C)(C)C)[C@@H](OC(=O)C(C)(C)C)[C@@H]1OC(=O)C(C)(C)C` [Compound M15, 2′,3′,4′,6′-tetra-O-pivaloylmangiferin]: 22 nM, 9 nM and 11 nM.
The matching figures for `CCCCO[C@@H]1[C@@H](OCCCC)[C@H](c2c(O)cc3oc4cc(O)c(O)cc4c(=O)c3c2O)O[C@H](COC(=O)CCC)[C@H]1OC(=O)CCC` [Compound M16, 2′,3′-di-O-butyl-4′,6′-di-O-butyrylmangiferin]: 9 nM, 7 nM and 7 nM.
With `O=c1c2cc(O)c(O)cc2oc2cc(O)cc(OCCO)c12` [Compound M18, 3,6,7-trihydroxy-1-(2-hydroxyethoxy)-9H-xanthen-9-one], the IC50 in assay [3] (Homo sapiens, HuT78) is 4540 nM; in assay [4] (Homo sapiens, MEC1), 3120 nM; in assay [5] (Homo sapiens), 2890 nM.
The matching figures for `C=CCOc1cc(O)cc2oc3cc(O)c(O)cc3c(=O)c12` [Compound M19, 1-allyloxy-3,6,7-trihydroxy-9H-xanthen-9-one]: 6740 nM, 6890 nM and 4520 nM.
With `CCCCC(=O)OC[C@H]1O[C@@H](c2c(OC(=O)CCCC)cc3oc4cc(OC(=O)CCCC)c(OC(=O)CCCC)cc4c(=O)c3c2OC(=O)CCCC)[C@H](OC(=O)CCCC)[C@@H](OC(=O)CCCC)[C@@H]1OC(=O)CCCC` [yk-8-1, 1,3,2′,3′,4′,6,6′,7-octa-O-valerylmangiferin], the IgG secretion in assay [6] amounted to 1117 ng/mL; in assay [7] it was 1474 ng/mL. Also, the λ chain secretion in assay [1] (compounds at 0.005-50 μM) amounted to 35 µg/L; in assay [2] (compounds at 0.005-50 μM), 119 µg/L.
